# Data published in US20240245666A1, “DOSING REGIMENS” (Novartis AG, priority 2021, published 2024).
# Where “and” joins values, the source holds several entries; their conditions need not be identical. Identical values can stand only once. Like-named read-outs stand apart in the source and are kept apart here.
# How the values were obtained:
# [1] = Phase I study, FE study group: asciminib under fasted, low-fat meal and high-fat meal conditions (PK and safety); conditions: for asciminib AUCinf, Gmean / asciminib AUCinf, Median / asciminib AUCinf, adjusted Gmean / asciminib AUClast, Gmean / asciminib AUClast, Median / asciminib AUClast, adjusted Gmean / asciminib Cmax, Gmean / asciminib Cmax, Median / asciminib Cmax, Range / asciminib Cmax, adjusted Gmean / asciminib T1/2, Range / asciminib Tmax, Range / reduction in asciminib exposure (AUCinf; AUCinf and AUClast) compared with fasted conditions / asciminib Tmax, Median: single 40 mg;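 also: healthy volunteers, open-label single-center study, PK parameters from individual plasma concentration-time profiles by non-compartmental analysis, 7-day washout between treatment periods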
# [2] = single agent, patients with CML; cited from earlier work
# clinical [3] = conditions: human, plasma, oral, 40 mg
# [4] = initial asciminib tablet formulations, cited from earlier work
# clinical [5] = conditions: human, in vivo, 40 mg
# [6] = In vitro flux study: dissolution and permeation of asciminib film-coated tablets through an artificial lipid membrane; format: in vitro ADME; conditions: 2×20 mg film-coated tablets; for flux rate (permeation through an artificial lipid membrane): 37° C.
# Experimental: The donor compartment of a United States Pharmacopeia, Method II (USP II) dissolution apparatus (Distek corporation; New Jersey, United States) was filled with 900 mL maleate buffer containing either low concentrations of bile salts (imitating fasted conditions; Fasted State Simulated Intestinal Fluid [FaSSIF]; 3 mM taurocholate/taurodeoxycholate, 0.2 mM phospholipids/lysophospholipids, pH 5.8), high concentrations of bile salts (imitating fed intestinal conditions; Fed State Simulated Intestinal Fluid [FeSSIF]; 10 mM taurocholate/taurodeoxycholate, 2 mM phospholipids/lysophospholipids, 0.8/5.0 mM oleate/glycerol monoleate, pH 6.0), or no bile salts (control; pH 6.5). […] Two replicates per condition were performed.
# [7] = Phase I study, DDI study group: asciminib with or without imatinib at steady state under low-fat meal conditions (PK and safety); conditions: imatinib 400 mg qd steady state alone (Day 12)
# [8] = control buffer, no bile salts (pH 6.5)
# [9] = fasted state buffer (FaSSIF, pH 5.8)
# [10] = fed state buffer (FeSSIF, pH 6.0)
smiles,measurement,setting,value
"O=C(Nc1ccc(OC(F)(F)Cl)cc1)c1cnc(N2CC[C@@H](O)C2)c(-c2ccn[nH]2)c1 [asciminib, N-[4-(Chlorodifluoromethoxy)phenyl]-6-[(3R)-3-hydroxypyrrolidin-1-yl]-5-(1H-pyrazol-5-yl)pyridine-3-carboxamide]",participants with at least 1 AE,"[1]; FE group, 11 of 24 participants",45.8%
same,participants with oropharyngeal pain and rhinitis (each),"[1]; FE group, each n=2",8.3%
same,"asciminib AUCinf, Gmean","[1]; fasted, n=24",5830 ng·h/mL
same,"asciminib AUCinf, Median","[1]; fasted, n=24",5890 ng·h/mL
same,"asciminib AUCinf, adjusted Gmean","[1]; fasted, n=24",5830 ng·h/mL
same,"asciminib AUClast, Gmean","[1]; fasted, n=24",5730 ng·h/mL
same,"asciminib AUClast, Median","[1]; fasted, n=24",5820 ng·h/mL
same,"asciminib AUClast, adjusted Gmean","[1]; fasted, n=24",5730 ng·h/mL
same,"asciminib Cmax, Gmean","[1]; fasted, n=24",550 ng/mL
same,"asciminib Cmax, Median","[1]; fasted, n=24",572 ng/mL
same,"asciminib Cmax, Range","[1]; fasted, n=24",280 to 1050 ng/mL
same,"asciminib Cmax, adjusted Gmean","[1]; fasted, n=24",550 ng/mL
same,"asciminib T1/2, Range","[1]; fasted, n=24",9.18 to 19.1 h
same,"asciminib Tmax, Range","[1]; fasted, n=24",1.00 to 5.00 h
same,reduction in asciminib exposure (AUCinf; AUCinf and AUClast) compared with fasted conditions,[1]; high-fat meal,62.3% and 62-63%
same,"asciminib AUCinf, Gmean","[1]; high-fat meal, n=24",2200 ng·h/mL
same,"asciminib AUCinf, Median","[1]; high-fat meal, n=24",2040 ng·h/mL
same,"asciminib AUCinf, adjusted Gmean","[1]; high-fat meal, n=24",2200 ng·h/mL
same,"asciminib AUClast, Gmean","[1]; high-fat meal, n=24",2130 ng·h/mL
same,"asciminib AUClast, Median","[1]; high-fat meal, n=24",1960 ng·h/mL
same,"asciminib AUClast, adjusted Gmean","[1]; high-fat meal, n=24",2130 ng·h/mL
same,"asciminib Cmax, Gmean","[1]; high-fat meal, n=24",175 ng/mL
same,"asciminib Cmax, Median","[1]; high-fat meal, n=24",159 ng/mL
same,"asciminib Cmax, Range","[1]; high-fat meal, n=24",82.2 to 423 ng/mL
same,"asciminib Cmax, adjusted Gmean","[1]; high-fat meal, n=24",175 ng/mL
same,"asciminib T1/2, Range","[1]; high-fat meal, n=24",8.81 to 18.1 h
same,"asciminib Tmax, Median","[1]; high-fat meal, n=24",4.01 h
same,"asciminib Tmax, Range","[1]; high-fat meal, n=24",1.00 to 8.00 h
same,reduction in asciminib exposure (AUCinf; AUCinf and AUClast) compared with fasted conditions,[1]; low-fat meal,30%
same,"asciminib AUCinf, Gmean","[1]; low-fat meal, n=23",4130 ng·h/mL
same,"asciminib AUCinf, Median","[1]; low-fat meal, n=23",4300 ng·h/mL
same,"asciminib AUCinf, adjusted Gmean","[1]; low-fat meal, n=23",4080 ng·h/mL
same,"asciminib AUClast, Gmean","[1]; low-fat meal, n=23",4060 ng·h/mL
same,"asciminib AUClast, Median","[1]; low-fat meal, n=23",4270 ng·h/mL
same,"asciminib AUClast, adjusted Gmean","[1]; low-fat meal, n=23",4010 ng·h/mL
same,"asciminib Cmax, Gmean","[1]; low-fat meal, n=23",363 ng/mL
same,"asciminib Cmax, Median","[1]; low-fat meal, n=23",365 ng/mL
same,"asciminib Cmax, Range","[1]; low-fat meal, n=23",172 to 709 ng/mL
same,"asciminib Cmax, adjusted Gmean","[1]; low-fat meal, n=23",359 ng/mL
same,"asciminib T1/2, Range","[1]; low-fat meal, n=23",9.70 to 17.7 h
same,"asciminib Tmax, Median","[1]; low-fat meal, n=23",3.00 h
same,"asciminib Tmax, Range","[1]; low-fat meal, n=23",0.997 to 5.00 h
same,maximum tolerated dose (not reached),[2],> 200 mg twice daily
same,half-life,clinical [3],13.5 h
same,decreased asciminib exposure compared with the fasted state,[4]; high-fat meal,~65% and 63-64%
same,decreased asciminib exposure compared with the fasted state,[4]; low-fat meal,~30% and 30-31%
same,clearance,clinical [5],185 mL/min
same,dissolution,[6]; [8],82.3%
same,flux rate (permeation through an artificial lipid membrane),[6]; [8],2.66 µg/min
same,dissolution,[6]; [9],93.1%
same,flux rate (permeation through an artificial lipid membrane),[6]; [9],1.45 µg/min
same,dissolution,[6]; [10],94.2%
same,flux rate (permeation through an artificial lipid membrane),[6]; [10],0.44 µg/min
Cc1ccc(NC(=O)c2ccc(CN3CCN(C)CC3)cc2)cc1Nc1nccc(-c2cccnc2)n1 [imatinib],"imatinib AUC0-24h, Gmean",[7],"33,600 ng×h/mL"
same,"imatinib AUClast, Gmean",[7],"33,600 ng×h/mL"
